Measurements reported in ChEMBL document CHEMBL1201862, “PubChem BioAssay data set” (2004).
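Interpolation was linear, between the two tested concentrations surrounding the appropriate level; five concentrations were tested over 48 hours in 96-well plates. Abbreviation: GI50, concentration required for 50% inhibition of growth.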 Active and inactive are the calls of the source. Rule as the data show it: active = GI50 up to about 1.1 µM and inactive = higher.

Experiments:
Assay in all cases: NCI anticancer screen, dose series, 48 h
786-0 = test system: 786-0
A498 = test system: A498
A549 = test system: A549
ACHN = test system: ACHN
CAKI-1 = test system: CAKI-1
CCRF-CEM = test system: CCRF-CEM
COLO 205 = test system: COLO 205
DU-145 = test system: DU-145
EKVX = test system: EKVX
HCC 2998 = test system: HCC 2998
HCT-116 = test system: HCT-116
HCT-15 = test system: HCT-15
HL-60 = test system: HL-60
HOP-62 = test system: HOP-62
HOP-92 = test system: HOP-92
HT-29 = test system: HT-29
Hs-578T = test system: Hs-578T
IGROV-1 = test system: IGROV-1
K562 = test system: K562
KM12 = test system: KM12
LOX IMVI = test system: LOX IMVI
M14 = test system: M14
MCF7 = test system: MCF7
MDA-MB-231 = test system: MDA-MB-231
MDA-MB-435 = test system: MDA-MB-435
MDA-N = test system: MDA-N
MOLT-4 = test system: MOLT-4
Malme-3M = test system: Malme-3M
NCI-H226 = test system: NCI-H226
NCI-H23 = test system: NCI-H23
NCI-H460 = test system: NCI-H460
NCI-H522 = test system: NCI-H522
NCI/ADR-RES = test system: NCI/ADR-RES
OVCAR-3 = test system: OVCAR-3
OVCAR-4 = test system: OVCAR-4
OVCAR-5 = test system: OVCAR-5
OVCAR-8 = test system: OVCAR-8
PC-3 = test system: PC-3
RPMI-8226 = test system: RPMI-8226
RXF 393 = test system: RXF 393
SF-268 = test system: SF-268
SF-539 = test system: SF-539
SK-MEL-28 = test system: SK-MEL-28
SK-MEL-2 = test system: SK-MEL-2
SK-MEL-5 = test system: SK-MEL-5
SK-OV-3 = test system: SK-OV-3
SN12C = test system: SN12C
SNB-19 = test system: SNB-19
SNB-75 = test system: SNB-75
SW-620 = test system: SW-620
T47D = test system: T47D
TK-10 = test system: TK-10
U-251 = test system: U-251
UACC-257 = test system: UACC-257
UO-31 = test system: UO-31
SF-295 = test system: SF-295
SR = test system: SR
UACC-62 = test system: UACC-62

Measured: GI50

CS(=O)(=O)N1CC(CCl)c2ccc(NCCN)cc21 (stereo not given)
inactive: 786-0 18.7 µM | A498 69 µM | A549 > 100 µM | ACHN 29.9 µM | CAKI-1 96.2 µM | CCRF-CEM 79.8 µM | COLO 205 > 100 µM | DU-145 > 100 µM | EKVX 47.9 µM | HCC 2998 > 100 µM | HCT-116 83.2 µM | HL-60 > 100 µM | HOP-62 14.8 µM | HOP-92 26.3 µM | HT-29 > 100 µM | Hs-578T 27.2 µM | IGROV-1 12.5 µM | K562 > 100 µM | KM12 > 100 µM | LOX IMVI > 100 µM | M14 > 100 µM | MCF7 > 100 µM | MDA-MB-231 33.3 µM | MDA-MB-435 > 100 µM | MDA-N > 100 µM | MOLT-4 > 100 µM | Malme-3M > 100 µM | NCI-H226 > 100 µM | NCI-H23 53.7 µM | NCI-H460 > 100 µM | NCI-H522 23.7 µM | NCI/ADR-RES > 100 µM | OVCAR-3 > 100 µM | OVCAR-4 58.9 µM | OVCAR-5 > 100 µM | OVCAR-8 57.5 µM | PC-3 > 100 µM | RPMI-8226 > 100 µM | RXF 393 35.4 µM | SF-268 39.1 µM | SF-539 72.6 µM | SK-MEL-28 > 100 µM | SK-MEL-2 > 100 µM | SK-MEL-5 > 100 µM | SK-OV-3 22.1 µM | SN12C > 100 µM | SNB-19 39 µM | SNB-75 17.1 µM | SW-620 > 100 µM | T47D > 100 µM | TK-10 > 100 µM | U-251 27.7 µM | UACC-257 > 100 µM | UO-31 > 100 µM
> 100 µM: HCT-15

CC(=O)c1cnc2oc3ccc(O)cc3c2c1-c1ccccc1
58.1 µM: HCT-15
inactive: 786-0 39.4 µM | A498 17.5 µM | A549 47.1 µM | ACHN 21.1 µM | CAKI-1 29.4 µM | CCRF-CEM 45 µM | COLO 205 30.3 µM | DU-145 32.1 µM | EKVX 23.9 µM | HCC 2998 38 µM | HCT-116 57.1 µM | HL-60 37.5 µM | HOP-92 18.3 µM | HT-29 95.5 µM | Hs-578T 14.2 µM | K562 41.6 µM | LOX IMVI 99.1 µM | M14 > 100 µM | MCF7 48.2 µM | MDA-MB-231 25.2 µM | MDA-MB-435 64.9 µM | MDA-N 40.1 µM | MOLT-4 19.2 µM | Malme-3M 15.5 µM | NCI-H226 35.6 µM | NCI-H23 46.1 µM | NCI-H460 33.5 µM | OVCAR-3 17.3 µM | OVCAR-4 15 µM | OVCAR-5 71.6 µM | OVCAR-8 29.4 µM | PC-3 21.4 µM | RPMI-8226 18.8 µM | RXF 393 25.3 µM | SF-295 30 µM | SF-539 15 µM | SK-MEL-28 17.5 µM | SK-MEL-2 22.6 µM | SK-MEL-5 22.2 µM | SK-OV-3 14 µM | SN12C 44.4 µM | SNB-19 37.3 µM | SR 33.3 µM | SW-620 > 100 µM | T47D 10.8 µM | TK-10 28.6 µM | U-251 52.4 µM | UACC-257 65.2 µM | UACC-62 20.5 µM
